In patent US20240299376A1, “METHOD OF TREATING A CONDITION USING A […] EFFECTIVE DOSE OF 1-(1-OXO-1,2-DIHYDROISOQUINOLIN-5-YL)-5-(TRIFLUOROMETHYL)-N-(2-(TRIFLUOROMETHYL)PYRIDIN-4-YL)-1H-PYRAZOLE-4-CARBOXAMIDE” (Janssen Pharmaceutica NV, priority 2021, published 2024):
Read-outs that look alike come from different tables or passages of the source.

Legend:
[1] = Preliminary food effect assessment at steady state; format: in vivo, human
Description: Preliminary food effect was assessed in 8 subjects at steady state: 2 subjects at 100 mg (2×50 mg), 1 subject at 400 mg (2×200 mg), 1 subject at 200 mg (4×50 mg) and 4 subjects at 300 mg (3×100 mg). In the fasting condition, JNJ-67856633 was administered after overnight fasting for at least 8 hours. In the fed condition, following an overnight fast of at least 8 hours, the subjects were given a high-fat meal 30 minutes before drug intake. In both conditions, no food was allowed for at least 4 hours after study drug intake. Individual plasma concentrations of JNJ-67856633 under fasting and fed conditions using 50 mg or 200 mg capsules are shown in Table 16.

[2] = test system: T cells derived from healthy donors; experiment: CyTOF analysis of T cells stimulated with CD3/28; format: cell-based, human
From the text: After fixation and barcoding, samples were pooled per donor and stained using a panel of 32 metal-labelled antibodies for identification of phenotype and function of immune cell populations and acquired on a CyTOF® C5 system. After debarcoding and normalization, cell populations were either manually gated or clustered by spanning-tree progression of density-normalized events (SPADE) analysis using Cytobank® software.
These observations are consistent with the fluorescence-activated cell sorting (FACS) analysis data.

[3] = 14-day oral toxicity study toxicokinetics in Sprague-Dawley rats; format: in vivo; settings: rat, plasma; for Cmax / AUC(0-t): mean; for AUC(0-t): read-out: AUC0-24 h; for Tmax: range
Description: (§1) Repeated-dose PK (toxicokinetics) were obtained as part of the repeated oral dose toleration toxicity studies in rats and dogs.
There was no further increase in the daily exposure parameters at 1,000 mg/kg relative to those from 200 mg/kg/day. There was no effect of gender on exposure and there was no increase in daily exposure parameters on Day 14 relative to those observed after the first dose.

[4] = test system: IL-10 secretion by OCI-LY3 ABC-DLBCL cells; experiment: IL-10 secretion assay (MesoScale Discovery); format: cell-based; settings: Homo sapiens; supernatants of OCI-LY3 cells, 16 independent experiments
Description: NF-κB signaling regulates the secretion of multiple cytokines, including interleukin (IL)-6 and IL-10. Libermann T A et al. Mol Cell Biol. 1990; 10(6):3155-3162; and Cao S, et al. J Biol Chem. 2006; 281(36):26041-26050. Secretion of the cytokines IL-6 and IL-10 by OCI-LY3 ABC-DLBCL cells was measured using a MesoScale Discovery (MSD) assay.

[5] = 14-day oral toxicity study toxicokinetics in dogs (beagles); format: in vivo, dog; settings: for Cmax: female, beagle, dog, in vivo, po, 250 mg/kg/day
Description: as §1
However, there was no increase in the exposure parameters at 250 mg/kg/day from the first day of dosing until Day 7 when the dose group was terminated.

[6] = test system: human cytokine IL-10 in serum; experiment: Serum IL-10 (MSD assay) after a single dose in OCI-LY3 tumor-bearing NSG mice; format: in vivo
Description: NF-κB signaling regulates the secretion of multiple cytokines, including interleukin-10 (IL-10). MALT1 inhibition results in a decrease of IL-10 transcription and translation as well as secretion. Levels of the human cytokine IL-10 were measured in the serum of OCI-LY3 or OCI-LY10 ABC-DLBCL tumor bearing mice using a Mesoscale Discovery assay (MSD). 25 μL of mouse serum was transferred to an MSD plate (V-Plex Proinflammation Panel I (human) kit) and incubated together with 25 μL diluent 2 (MSD; R51BB-3) for 2 hours at RT followed by a 2-hour incubation with IL-10 antibody solution. Plates were read on a SECTOR imager. Serum human IL-10 levels were correlated to serum compound concentration.
Serum IL-10 levels are graphed as the mean+/−SD.
For PD, when tumors reached 550-750 mm^3 animals were assigned randomly into the treatment groups and treated as presented in Table 5. Dose volumes were adjusted to individual body weights at 10 mL/kg. For both PD studies, serum was collected at 2 and 12 hours post treatment from the retro-orbital sinus. At 24 hours post treatment, animals were bled via decapitation and tumors were excised, weighed, and divided for bioanalysis and ex vivo PD analysis. Blood was centrifuged at 10,000 rpm and serum divided for bioanalysis and PD analysis.

[7] = female, 30 mg/kg/day, female, Day 0, 30 mg/kg/day
[8] = female, 30 mg/kg/day, female, Day 13, 30 mg/kg/day
[9] = female, 200 mg/kg/day, female, Day 0, 200 mg/kg/day
[10] = female, 200 mg/kg/day, female, Day 13, 200 mg/kg/day
[11] = female, 1000 mg/kg/day, female, Day 0, 1,000 mg/kg/day
[12] = female, 1000 mg/kg/day, female, Day 13, 1,000 mg/kg/day
[13] = male, 30 mg/kg/day, male, Day 0, 30 mg/kg/day
[14] = male, 30 mg/kg/day, male, Day 13, 30 mg/kg/day
[15] = male, 200 mg/kg/day, male, Day 0, 200 mg/kg/day
[16] = male, 200 mg/kg/day, male, Day 13, 200 mg/kg/day
[17] = male, 1000 mg/kg/day, male (4M), Day 13, 1,000 mg/kg/day
[18] = male, 1000 mg/kg/day, male, Day 0, 1,000 mg/kg/day
[19] = Day 1, 10 to 50 mg/kg/day (5-fold increase in dose)
[20] = Day 1, 10 to 250 mg/kg/day (25-fold increase in dose)

O=C(Nc1ccnc(C(F)(F)F)c1)c1cnn(-c2cccc3c(=O)[nH]ccc23)c1C(F)(F)F [Compound A, 1-(1-oxo-1,2-dihydroisoquinolin-5-yl)-5-(trifluoromethyl)-N-[2-(trifluoromethyl)pyridin-4-yl]-1H-pyrazole-4-carboxamide]
Cmax ([1]; 2 × 50 mg, fasted condition, steady state, individual values, N = 2, listed as JNJ-67856633): 18.2 µg/mL | Cmax ([1]; 2 × 50 mg, fed condition (high-fat meal), steady state, individual values, N = 2, listed as JNJ-67856633): 18.4 µg/mL | AUCτ ([1]; 2 × 50 mg, fed condition, steady state, individual values, N = 2, listed as JNJ-67856633): 421 µg·h/mL | steady state exposure (Cmax and AUCτ) fasting vs fed ([1]; 8 subjects at steady state): comparable | AUC ([1]; human, plasma, oral, 100 mg, 2 × 50 mg, fasted condition, steady state, N = 2): 313 µg·h/mL | Cmax ([1]; human, plasma, oral, 100 mg, 2 × 50 mg, fasted condition, steady state, individual values, N = 2, read-out: Cmax): 15.3 µg/mL | Tmax ([1]; human, plasma, oral, 100 mg, 2 × 50 mg, fasted condition, steady state, individual values, N = 2, read-out: Tmax): 2 h | Cmax ([1]; human, plasma, oral, 100 mg, 2 × 50 mg, fed condition (high-fat meal), steady state, individual values, N = 2, read-out: Cmax): 13.4 µg/mL | AUC ([1]; human, plasma, oral, 100 mg, 2 × 50 mg, fed condition, steady state, individual values, N = 2): 304 µg·h/mL | Tmax ([1]; human, plasma, oral, 100 mg, 2 × 50 mg, fed condition, steady state, individual values, N = 2, read-out: Tmax): 6 h | AUC ([1]; human, plasma, oral, 200 mg, 4 × 50 mg, fasted condition, steady state, N = 1): 958 µg·h/mL | Cmax ([1]; human, plasma, oral, 200 mg, 4 × 50 mg, fasted condition, steady state, N = 1, read-out: Cmax): 47.5 µg/mL | Tmax ([1]; human, plasma, oral, 200 mg, 4 × 50 mg, fasted condition, steady state, N = 1, read-out: Tmax): 1 h | AUC ([1]; human, plasma, oral, 200 mg, 4 × 50 mg, fed condition, steady state, N = 1): 1010 µg·h/mL | Cmax ([1]; human, plasma, oral, 200 mg, 4 × 50 mg, fed condition, steady state, N = 1, read-out: Cmax): 48.4 µg/mL | Tmax ([1]; human, plasma, oral, 200 mg, 4 × 50 mg, fed condition, steady state, N = 1, read-out: Tmax): 24 h | AUC ([1]; human, plasma, oral, 400 mg, 2 × 200 mg, fasted condition, steady state, N = 1): 1100 µg·h/mL | Cmax ([1]; human, plasma, oral, 400 mg, 2 × 200 mg, fasted condition, steady state, N = 1, read-out: Cmax): 61.1 µg/mL | AUC ([1]; human, plasma, oral, 400 mg, 2 × 200 mg, fed condition, steady state, N = 1): 1320 µg·h/mL | Cmax ([1]; human, plasma, oral, 400 mg, 2 × 200 mg, fed condition, steady state, N = 1, read-out: Cmax): 64 µg/mL | Tmax ([1]; human, plasma, oral, fasting conditions, 8 subjects at steady state, read-out: Tmax range): 0 to 4 h | Tmax ([1]; human, plasma, oral, fed conditions, 8 subjects at steady state, read-out: Tmax range): 0.5 to 24 h | generation of Treg cells following CD3/28 stimulation ([2]; 4 days, CyTOF): dose-dependently inhibited the generation of CD4^+CD25^+CD1271^lowFoxP3^hi cells | number of CD8+ T cells ([2]; 4 days, CyTOF): no strong effect on the number of CD8^+ T cells was observed | expression of TIM3 ([2]; CD4+ and CD8+ T cells, CyTOF): No decrease | expression of exhaustion markers PD-1, CTLA4, LAG3 ([2]; CD8+ T cells, CyTOF): decreased on CD8^+ T cells | activation of CD8+ T cells ([2]; CD69+CD25+ cells following CD3/28 stimulation): reduced | Cmax [3, 7]: 27.1 µg/mL | AUC(0-t) [3, 7]: 366 µg·h/mL | Tmax [3, 7]: 1 to 7 h | Cmax [3, 8]: 33.4 µg/mL | AUC(0-t) [3, 8]: 451 µg·h/mL | Tmax [3, 8]: 2 to 4 h | Cmax [3, 9]: 93.1 µg/mL | AUC(0-t) [3, 9]: 93.1 µg·h/mL | Cmax [3, 10]: 96.1 µg/mL | AUC(0-t) [3, 10]: 1300 µg·h/mL | Tmax [3, 10]: 2 to 7 h | Cmax [3, 11]: 83.2 µg/mL | AUC(0-t) [3, 11]: 1140 µg·h/mL | Tmax [3, 11]: 2 to 4 h | Cmax [3, 12]: 83.2 µg/mL | AUC(0-t) [3, 12]: 83.2 µg·h/mL | Cmax ([3]; male, 30 mg/kg/day, male, Day 0 (first day of dosing), 30 mg/kg/day): 24.4 µg/mL | AUC(0-t) [3, 13]: 247 µg·h/mL | Tmax [3, 13]: 2 to 4 h | Cmax [3, 14]: 26.7 µg/mL | AUC(0-t) [3, 14]: 305 µg·h/mL | Tmax [3, 14]: 2 h | Cmax [3, 15]: 96.7 µg/mL | AUC(0-t) [3, 15]: 1410 µg·h/mL | Tmax [3, 15]: 7 to 9 h | Cmax [3, 16]: 63.9 µg/mL | AUC(0-t) [3, 16]: 803 µg·h/mL | Tmax [3, 16]: 2 to 7 h | Cmax [3, 17]: 83.2 µg/mL | AUC(0-t) [3, 17]: 898 µg·h/mL | Tmax [3, 17]: 2 to 4 h | Cmax [3, 18]: 90.8 µg/mL | AUC(0-t) [3, 18]: 1120 µg·h/mL | Tmax [3, 18]: 2 to 9 h | IC50 [4]: 77 ± 24 nM | increase in AUC0-24h with dose [5, 19]: 5.8 fold | increase in Cmax with dose [5, 19]: 5.5 fold | increase in AUC0-24h with dose [5, 20]: 23 fold | increase in Cmax with dose [5, 20]: 20 fold | relation of single doses to maximum tolerated dose (MTD) ([5]; escalated single oral doses vs MTD upon 14 days of dosing in dogs): greater than the maximum tolerated dose (MTD) upon 14 days of dosing in dogs | toxicity findings ([5]; female beagles, 10, 50, and 250 mg/kg/day PO for 14 days): moribundity and mortality resulted in early termination of the 50 and 250 mg/kg dose groups | Cmax [5]: 263,000 ng/mL | Cmax ([5]; Cmax): 290 µg/mL | inhibition or reduction of serum IL-10 ([6]; single dose 10 mg/kg, 12 hours post dose): intermediate inhibition or reduction | inhibition or reduction of serum IL-10 ([6]; single dose 30 mg/kg, 12 hours post dose): completely inhibited or reduced serum IL-10 | inhibition or reduction of serum IL-10 ([6]; single dose 100 mg/kg, 12 hours post dose): completely inhibited or reduced serum IL-10 | inhibition or reduction of serum IL-10 ([6]; single dose, 24 hours post dose): lost at 24 hours post dose
